SMILES strings stand for the structures.

One series concerns AGE-BSA crosslinked to collagen. Briefly: Cross-link Breaking Assay (sandwich enzyme immunoassay). The series is classed as biochemical. The following applies: anti-AGE antibody; at 30 mM. Here is the method: The present invention also involves a novel sandwich enzyme immunoassay used to ascertain the ability of test compounds to “break” or reverse already formed advanced glycosylation endproducts by detecting the breaking of AGE (Advanced glycosylation endproduct) moieties from AGE-crosslinked protein. This assay comprises: • a) incubation of AGE-modified bovine serum albumin (AGE BSA) on collagen-coated wells of microtiter plates for a period of 2–6 hours' at a temperature of 37° C.; • b) washing of the wells with PBS-Tween; • c) application of the test compounds to the washed wells of step b; • d) incubation of the test compounds applied to the washed wells for an additional 12–24 hours at a temperature of about 37° C.; and • e) detection of the AGE-breaking using an antibody raised against AGE-ribonuclease or cross-link breaking with an antibody against BSA.
In order to ascertain the ability of the compounds of the instant invention to “break” or reverse already formed advanced glycosylation endproducts, a novel sandwich enzyme immunoassay was developed which detects breaking of AGE (Advanced glycosylation endproduct) moieties from AGE-crosslinked protein. The assay utilizes collagen-coated 96 well microtiter plates that are obtained commercially. […] Following an incubation period of 16 hours (37° C.) cross-link-breaking is detected using an antibody raised against AGE-ribonuclease or with an antibody against BSA. […] Details of the assay are as follows:
Methods Preparation of Solutions and Buffers • 1. AGE-BSA stock solutions were prepared as follows. Sodium phosphate buffer (0.4 M) was prepared by dissolving 6 grams of monobasic sodium phosphate in 100 ml of distilled water, 7 grams of dibasic sodium phosphate (0.4 M) in 100 ml of distilled water and adjusting the pH of the dibasic solution to 7.4 with the monobasic solution. Sodium azide (0.02 grams) was added per 100 ml volume to inhibit bacterial growth. The BSA solution was prepared as follows: 400 mg of Type V BSA (bovine serum albumin) was added for each ml of sodium phosphate buffer (above). A 400 mM glucose solution was prepared by dissolving 7.2 grams of dextrose in 100 ml of sodium phosphate buffer (above). The BSA and glucose solutions were mixed 1:1 and incubated at 37° C. for 12 weeks. The pH of the incubation mixture was monitored weekly and adjusted to pH 7.4 if necessary. After 12 weeks, the AGE-BSA solution was dialyzed against PBS for 48 hours with four buffer changes, each at a 1:500 ratio of solution to dialysis buffer. Protein concentration was determined by the micro-Lowry method. The AGE-BSA stock solution was aliquoted and stored at −20° C. […] Working solutions for crosslinking and breaking studies were prepared as follows. Test compounds were dissolved in PBS and the pH was adjusted to pH 7.4 if necessary. AGE-BSA stock solution was diluted in PBS to measure maximum crosslinking and in the inhibitor solution for testing inhibitory activity of compounds. The concentration of AGE-BSA necessary to achieve the optimum sensitivity was determined by initial titration of each lot of AGE-BSA. • 3. Wash buffer (“PBS-Tween”) was, prepared as follows. PBS was prepared by dissolving the following salts in one liter of distilled water: NaCl, 8 grams; KC1, 0.2 gram, KH2PO4. […] Tween-20 was added to a final concentration of 0.05% (vol/vol). • 4. Substrates for detection of secondary antibody binding were prepared by diluting the HRP substrate buffer 1:10 in distilled water and mixing with ABTS chromogen 1:50 just prior to use. Assay Procedures • 1. Biocoat plates were blocked with 300 μl of “Superbloc”. Plates were blocked for one hour at room temperature and were washed with PBS-Tween three times with the Dynatech platewasher before addition of test reagents. • 2. Each experiment was set up in the following manner. The first three wells of the Biocoat plate were used for the reagent blank.
For `Cc1c(CCO)sc[n+]1Cc1ccccc1.[Cl-]` [3-benzyl-5-(2-hydroxyethyl)-4-methyl thiazolium chloride], the “Breaking Anti-AGE” value is 65%.

Consider `COC(=O)C[n+]1cscc1C.[Br-]` [3-(2-methoxy-2-oxoethyl)-4-methylthiazolium bromide], for which the “Breaking Anti-AGE” value amounted to 54%.

On to `O=C(C[n+]1ccsc1)c1ccc(Br)cc1.[Br-]` [3-(2-(4^1-bromophenyl]-2-oxoethyl)-thiazolium bromide], for which the “Breaking Anti-AGE” value worked out at 76%.

The same series, now with this note: anti-AGE antibody; concentration not given.
Regarding `NC(=O)C[n+]1csc2ccccc21.[Br-]` [3-(2-amino-2-oxoethyl)-benzothiazolium bromide], the “Breaking Anti-AGE” value worked out at 77%.

For the molecule `Cc1c(CCO)sc[n+]1CC(N)=O.[Br-]` [3-(2-amino-2-oxoethyl)-4-methyl-5-(2-hydroxyethyl) thiazolium bromide], the “Breaking Anti-AGE” value is 65%.

For `CC(=O)C[n+]1ccsc1.[Cl-]` [3-(2-methyl-2-oxoethyl) thiazolium chloride], the “Breaking Anti-AGE” value worked out at 56%.

Still in this series, the particulars now being: anti-BSA antibody; at 30 mM.
For the molecule `Cc1c(CCO)sc[n+]1Cc1ccccc1.[Cl-]` [3-benzyl-5-(2-hydroxyethyl)-4-methyl thiazolium chloride], the “Breaking Anti-BSA” value is listed as 61%.

`COC(=O)C[n+]1cscc1C.[Br-]` [3-(2-methoxy-2-oxoethyl)-4-methylthiazolium bromide]: the “Breaking Anti-BSA” value was found to be 51%.

For the molecule `O=C(C[n+]1ccsc1)c1ccc(Br)cc1.[Br-]` [3-(2-(4^1-bromophenyl]-2-oxoethyl)-thiazolium bromide], the “Breaking Anti-BSA” value turned out to be 25%.

The same series, now with this note: anti-BSA antibody; concentration not given.
As to `NC(=O)C[n+]1csc2ccccc21.[Br-]` [3-(2-amino-2-oxoethyl)-benzothiazolium bromide], the “Breaking Anti-BSA” value came to 65%.

With `Cc1c(CCO)sc[n+]1CC(N)=O.[Br-]` [3-(2-amino-2-oxoethyl)-4-methyl-5-(2-hydroxyethyl) thiazolium bromide], the “Breaking Anti-BSA” value came out at 57%.

Consider `CC(=O)C[n+]1ccsc1.[Cl-]` [3-(2-methyl-2-oxoethyl) thiazolium chloride], for which the “Breaking Anti-BSA” value is listed as 93%.

Staying with this series, now noted: detection with anti-AGE antibody; read-out: IC50 (mM) Anti-AGE.
For the molecule `NC(=O)C[n+]1csc2ccccc21.[Br-]` [3-(2-amino-2-oxoethyl)-benzothiazolium bromide], the IC50 (as a rule, the concentration that inhibits the measured activity by half) turned out to be 0.4 mM.

Take `Cc1c(CCO)sc[n+]1CC(N)=O.[Br-]` [3-(2-amino-2-oxoethyl)-4-methyl-5-(2-hydroxyethyl) thiazolium bromide]: the half-inhibitory concentration (IC50) stood at 0.012 mM.

For the molecule `CC(=O)C[n+]1ccsc1.[Cl-]` [3-(2-methyl-2-oxoethyl) thiazolium chloride], the IC50 worked out at 0.83 mM.

With `Cc1c(CCO)sc[n+]1Cc1ccccc1.[Cl-]` [3-benzyl-5-(2-hydroxyethyl)-4-methyl thiazolium chloride], the half-inhibitory concentration (IC50) is 0.42 mM.

Staying with this series, now noted: detection with anti-BSA antibody; read-out: IC50 (mM) Anti-BSA.
As to `NC(=O)C[n+]1csc2ccccc21.[Br-]` [3-(2-amino-2-oxoethyl)-benzothiazolium bromide], the IC50 is 0.52 mM.

Turning to `Cc1c(CCO)sc[n+]1CC(N)=O.[Br-]` [3-(2-amino-2-oxoethyl)-4-methyl-5-(2-hydroxyethyl) thiazolium bromide], the IC50 was found to be 0.12 mM.

With `CC(=O)C[n+]1ccsc1.[Cl-]` [3-(2-methyl-2-oxoethyl) thiazolium chloride], the half-maximal inhibitory concentration (IC50) was found to be 0.75 mM.

As for `Cc1c(CCO)sc[n+]1Cc1ccccc1.[Cl-]` [3-benzyl-5-(2-hydroxyethyl)-4-methyl thiazolium chloride], the IC50 is 0.55 mM.

In the next series the test system is cross-linking of glycated bovine serum albumin (AGE-BSA) to rat tail tendon collagen. Briefly: Cross-linking Inhibition Assay. The following applies: 3 mM.
Consider `CCCCCc1ccc(C(=O)C[n+]2csc(CCO)c2C)cc1.[Br-]` [3-(2-(4′-n-pentylphenyl)-2-oxoethyl]-4-methyl-5-(2′-hydroxyethyl)-thiazolinium], for which the “Relative Cross-link Inhibition” value is 52% @ 3 mM.

Staying with this series, now noted: inhibition of AGE-BSA cross-linking to collagen-coated plate.
For the molecule `NC(=O)C[n+]1ccsc1` [3-(2-amino-2-oxoethyl)thiazolium bromide, 3-(2-amino-2-oxoethyl)-thiazolium bromide], the IC50 was 0.53 mM.

As for `NC(=O)C[n+]1csc2ccccc21.[Br-]` [3-(2-amino-2-oxoethyl)-benzothiazolium bromide], the IC50 came out at 0.02 mM.

`Cc1c(CCO)sc[n+]1CC(N)=O.[Br-]` [3-(2-amino-2-oxoethyl)-4-methyl-5-(2-hydroxyethyl) thiazolium bromide] returned a 50% inhibitory concentration (IC50) of 1.42 mM.

`Cc1sc[n+](CC(=O)c2ccc(Br)cc2)c1C` [3-(2-(4-bromophenyl]-2-oxoethyl)-4,5-dimethylthiazolium bromide]: the 50% inhibitory concentration (IC50) was 2.92 mM.

`CCN(CC)c1ccc(C(=O)C[n+]2csc(CCO)c2C)cc1` [3-(2-4′-diethylaminophenyl)-2-oxoethyl]-4-qj. methyl-5-(2′-hydroxyethyl)-thiazolinium bromide]: the IC50 was found to be 2.8 mM.

Molecule `CCCCCc1ccc(C(=O)C[n+]2csc(CCO)c2C)cc1.[Br-]` [3-(2-(4′-n-pentylphenyl)-2-oxoethyl]-4-methyl-5-(2′-hydroxyethyl)-thiazolinium] showed an IC50 of 1.53 mM.

`Cc1c[n+](CC(=O)c2ccccc2)cs1` [3-(2-phenyl-2-oxoethyl)-5-methyl-thiazolium bromide] yielded a half-maximal inhibitory concentration (IC50) of 12.6 mM.

Take `Cc1c(CCO)sc[n+]1CC(=O)c1ccc(Br)cc1` [3-(2-(41-bromophenyl]-2-oxoethyl)-4-methyl-5-(2-hydroxyethyl)thiazolium bromide]: 2.95 mM corresponded to half-maximal inhibition (IC50).

`Cc1c[n+](CC(N)=O)cs1` [3-(2-amino-2-oxoethyl)-5-methyl-thiazolium bromide] showed a 50% inhibitory concentration (IC50) of 0.0289 mM.

On to `Cc1sc[n+](CC(=O)c2cc(C(C)(C)C)c(O)c(C(C)(C)C)c2)c1C` [3-(2-(3′,5′-di-tert-butyl-4′-hydroxypheny].)-2-oxoethyl]-4,5-dimethyl-thiazolium bromide], for which the IC50 stood at 0.16 mM.

Values taken from US7022719B2, “Preventing and reversing the formation of advance glycosylation endproducts” (Alteon, Inc., priority 1995, dated 2006).
